Source: BindingDB's records for doi:10.1080/14756360400015231 (Quaid-I-Azam University, 2005)

The compounds below were run against Carboxylic ester hydrolase (Equus caballus, UniProt Q9N1N9) (assay: Enzyme Inhibition Assay). Details: pH 8; 25 °C.
Chain of Carboxylic ester hydrolase (Q9N1N9 whole entry): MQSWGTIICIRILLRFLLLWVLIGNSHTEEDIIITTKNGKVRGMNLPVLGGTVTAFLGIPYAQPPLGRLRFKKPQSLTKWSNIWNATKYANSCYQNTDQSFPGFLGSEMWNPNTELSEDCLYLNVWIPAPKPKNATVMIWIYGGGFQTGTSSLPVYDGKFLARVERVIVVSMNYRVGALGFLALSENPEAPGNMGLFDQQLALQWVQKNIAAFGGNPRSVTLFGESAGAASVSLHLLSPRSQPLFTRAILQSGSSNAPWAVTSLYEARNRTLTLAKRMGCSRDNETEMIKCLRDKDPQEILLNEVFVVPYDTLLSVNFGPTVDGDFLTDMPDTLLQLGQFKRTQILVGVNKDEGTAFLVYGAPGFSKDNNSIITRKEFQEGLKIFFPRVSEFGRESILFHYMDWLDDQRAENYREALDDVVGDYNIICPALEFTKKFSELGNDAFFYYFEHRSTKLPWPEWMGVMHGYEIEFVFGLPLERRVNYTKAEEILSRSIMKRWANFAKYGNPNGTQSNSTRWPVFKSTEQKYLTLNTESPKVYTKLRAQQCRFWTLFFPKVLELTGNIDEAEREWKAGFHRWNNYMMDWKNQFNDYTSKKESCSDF
Procedure: In vitro cholinesterase inhibition assay using electric-eel acetylcholinesterase, horse-serum butyrylcholinesterse. The IC50 values were calculated using the […] enzyme kinetics program (Perrella Scientific Inc., Amherst, USA).
In the case of `O=C(/C=C/c1ccc(O)cc1)c1ccccc1` [Chalcone 2], the IC50 is reported as 40 µM.
`O=C(/C=C/c1ccccc1O)c1ccccc1` [Chalcone, 1] showed an IC50 of 16 µM.
`O=C(/C=C/c1cccc(O)c1)c1ccccc1` [Chalcone, 2] showed an IC50 of 46.2 µM.
Compound `COc1ccc(/C=C/C(=O)c2ccccc2)cc1` [Chalcone, 4] has an IC50 of 39 µM.
Compound `COc1ccc(/C=C/C(=O)c2ccccc2)cc1OC` [Chalcone, 5] has an IC50 of 23.1 µM.
For `O=C(/C=C/c1ccccc1)c1ccccc1` [Chalcone, 13], the IC50 was 109 µM.
